Patent publication US20100240589A1, “DIASTEREOMERIC PEPTIDES USEFUL AS INHIBITORS OF MEMBRANE PROTEIN ASSEMBLY” (YEDA RESEARCH AND DEVELOPMENT CO., LTD. AT THE WEIZMANN …, priority 2003, published 2010)
Read-outs that look alike come from different tables or passages of the source. Ends that are not written are not given here.

Assays:
[1] = system: CP362 containing pNT201
[2] = system: fusion of HIV-1 gp120-41 expressing TF228 cells with CD4+CXCR4+3T3 mouse fibroblasts; experiment: Dye transfer fusion assay (cell-cell fusion); type: cell-based; settings: for inhibition of HIV-1 mediated cell-cell fusion: dye transfer, co-culture 2 hours at 37° C.; for inhibition compared with the wild-type peptide: dye transfer fusion assay
Method: Peptide inhibition of cell-cell fusion was assayed by monitoring the redistribution of two fluorescent probes: a water-soluble probe and a lipophilic probe, between target and effector cells upon their co-incubation with these probes (Munoz-Barroso I., et al., 1998, J. Cell Biol. 140: 315-323). The HIV-1 gp120-41 expressing TF228 cells (Jonak, Z. L., et al., 1993, AIDS Res. Hum. Retrovir. 9:23-32) were labeled with either calcein or a green fluorescent fatty acid as follows: HIV-1 gp120-41 expressing TF228 cells were incubated with 1 μM calcein for 60 minutes at 37° C., and then washed and resuspended at 10^5 cells/ml in RPMI medium. Alternatively, the HIV-1 gp120-41 expressing TF228 cells were labeled with the fatty acid 4,4-difluoro-5-methyl-4-bora-3a, 4a-diaza-s-indacene-3-dodecanoic acid (C1-BODIPY-C12; (Molecular Probes, Eugene, Oreg.)) as follows: HIV-1 gp120-41 expressing TF228 cells were seeded at 10^5 cells/ml in RPMI medium containing 10 mg/ml of the C1-BODIPY-C12 and grown for three days prior to the experiment. The fatty acid was eventually metabolized into phospholipid, primarily phosphatidylcholine. The cells where then washed and resuspended at 10^5 cells/ml. The target cells, CD4+CXCR4+3T3 mouse fibroblasts, were plated at 10^5 cells/ml the night before the experiment. The next day, the CD4+CXCR4+3T3 cells were labeled with 20 μM [5-(and -6) ((4-Chloromethyl)benzoyl)amino)) tetramethylrhodamine (CMTMR) for one hour at 37° C., washed several times and combined with the effector cells (1:3 target-effector cell ratio). Different concentrations of peptides, dissolved in PBS or Tris buffer, were then added. The cells were co-cultured for 2 hours at 37° C. in 12 well plates (Costar, Cambridge, Mass.). Phase and fluorescent images were collected using an Olympus IX70 coupled to a CCD camera (Princeton Instruments, Trenton, N.J.) with a 20× objective lens. An 82000 optical filter cube (Chroma Technology Corp., Brattleboro, Vt.) was used for the excitation of calcein (494/517), BODIPY (500/510), and CMTMR (541/565). Three images per well were collected and then analyzed using metamorph software (Universal Imaging, WestChester, Pa.) for dye transfer from the donor to the acceptor cell. The scoring of fusion events was conducted as described by Munoz-Barroso et al. (ibid.).

[3] = target: wt-fusion peptide (N-terminal 33 segment of gp41) (Human immunodeficiency virus type 1 group M subtype B, UniProt P03377); settings: NBD-wt donor 0.05 μM, Rho acceptor 0.025-0.35 μM, SUV 400 μM
Method: The self-association of the peptides in their membrane-bound state was monitored by employing resonance energy transfer measurements. Fluorescence resonance energy transfer was measured using NBD-labeled peptides serving as donors and Rho (rhodamine)-labeled peptides serving as energy acceptors. Fluorescence spectra were obtained at room temperature with excitation set at 467 nm using a 10 nm slit width. In a typical experiment, donor peptide (final concentration 0.04 μM) was added to a dispersion of phosphatidylcholine/cholesterol (PC/Chol; 10:1 w/w) small unilamellar vesicles (SUV; 224 μM) in PBS, followed by the addition of acceptor peptide in several sequential doses. Fluorescence spectra were obtained before and after addition of the acceptor. The efficiency of energy transfer (E) was determined by measuring the decrease in the quantum yield of the donor as a result of the presence of acceptor. E was determined experimentally from the ratio of the fluorescence intensities of the donor in the presence (Ida) and in the absence (Id) of the acceptor, at the donor's maximum emission wavelength. The percentage of transfer efficiency (E), is given by:
The contribution of buffer and vesicles was subtracted from all measurements. […] The acceptor-peptide was added only after the donor-peptide was already bound to the membrane, thus decreasing association in solution. […]

[4] = system: activated T-cells; experiment: Binding of NBD-labeled fusion peptides to T-cells (confocal fluorescence microscopy); type: cell-based; set-up: dose or concentration left out as unconfirmed; settings: 30 minutes, room temperature
Method: Nitrobenzofurazane (NBD)-labeled wt-fusion peptide or NBD-labeled diastereomeric fusion peptide (herein designated IFFA) were studied for their binding to activated T-cells as follows: Activated T-cells (10,000/ml) were incubated for 30 minutes at room temperature with NBD labeled wt- or IFFA-fusion peptides (0.5 mM final concentration). The cells were washed twice with PBS (100 ml) in order to remove excess of unbound peptide. The cells were then observed under the fluorescent confocal microscope. NBD excitation was at 488 nm with the laser set at 2% power to prevent bleaching of the fluorophore. Fluorescence data was collected from 525 nm and up.

[5] = target: T1, wt-GPA (Homo sapiens, UniProt P02724); experiment: FRET between wt-GPA and diastereomer in LUV; type: binding; settings: donor 0.1 μM, acceptor 0.01-0.05 μM, LUV 340 μM
T1 construct: ITLIIFGVMAGVIGT; fluorophore label (NBD); made in house; host or cells: chemical peptide synthesis
Method: Wild type (wt)-GPA and the 2D-GPA analog were synthetically labeled with Rhodamine and NBD, respectively, and fluorescent resonance energy transfer (FRET) experiments were performed with NBD-labeled peptides serving as energy donors and Rhodamine-labeled peptides serving as energy acceptors. […] In a typical experiment, a donor peptide (final concentration 0.1 μM) was added to a dispersion of large unilamellar vesicles (LUV; 340 μM) in PBS. This was followed by the addition of an acceptor peptide in increasing doses ranging from 0.01 to 0.05 μM. At this peptide to lipid ratios, complete membrane binding is expected for all the transmembrane peptides. […] The percentage of transfer efficiency (E), is given by:
The R0 for this pair of donor-acceptor fluorophores is around 51 Å.

[6] = system: ToxR GPA construct in FHK12 bacteria; experiment: ToxR receptor expression levels (Western blot); type: cell-based; settings: anti maltose binding protein
Method: Bacteria FHK12 cells were grown in the presence or absence of 2D-GPA, 10 μl samples were added to 2× sample buffer and boiled for 5 minutes. The samples were separated on a 12% SDS-PAGE and thereafter were blotted. The primary antibody used was anti maltose binding protein. The detection was performed with Phototope-HRP Western Blot Detection System (Cell Signaling Technology, MA, USA).

[7] = system: ToxR GPA (GPA transmembrane domain); experiment: ToxR GPA heterodimer formation (β-galactosidase reporter); type: cell-based
Method: The ToxR GPA plasmid construct is a simple and robust method for detecting homodimerization of transmembrane domains in vivo (Langosch, D., et al., 1996, J. Mol. Biol. 263: 525-530). The detection is done through the signal of a β-galactosidase reporter gene. Heterodimerization can be detected through addition of an exogenous peptide. […] The 2D-GPA peptide of SEQ ID NO:11 was exogenously added to the system in increasing doses (0.5-20 μM; FIG. 5). […] The inhibition was calculated as follows: I is the inhibitory ability of the peptide, Apeptide is the activity of ToxR-GPA in the presence of the peptide, Amax is the maximal activity of ToxR-GPA without peptide, and Abaseline is the baseline activity of the monomer A16 plasmid, a plasmid containing a peptide which consists of 16 amino acids all of which are alanine (Langosch, D., et al., 1996, J. Mol. Biol. 263: 525-530).
IC50 was calculated by fitting normalized data to the Langmuir equation (equation 3) in the Origin 6.0 commercial program.
Were A represents ToxR-GPA transcription factor, B represents the exogenous peptide, I represents inhibition of beta-galactosidase activity (1-activity) and K is a scaling constant.

[8] = system: FHK12 bacterial membrane; experiment: Binding of NBD labeled peptide to bacterial membrane (confocal); type: cell-based; settings: NBD labeled peptide 500 nM
Method: The binding of 2D-GPA to the membrane of the FHK12 bacteria is a prerequisite for the interaction between the peptide and the GPA ToxR construct. In order to verify this binding, the bacteria were observed under a confocal microscope in the absence or presence of a NBD labeled 2D-GPA peptide at a 500 nM concentration. Experiments were done as follows: FHK12 bacteria were diluted 1:10000 and incubated with NBD labeled 2D-GPA, final concentration of 500 nM, for 30 seconds. Samples were fixed with Glutaraldehyde at a final concentration of 0.001% for 30 seconds, centrifuged and washed 3 times with fresh PBS. Confocal images were obtained using an Olympus IX70 FV500 confocal laser-scanning microscope. […] The confocal images were obtained at 12-bit resolution.

[9] = target: Tar-1 all-L NBD peptide (Escherichia coli, UniProt P07017); settings: donor Tar-1 all-L NBD peptide; acceptor-to-lipid ratio of 1:7500; PE/PG SUV
Method: To investigate the direct interaction between the two enantiomers of Tar-1 in an isolated in vitro system, fluorescence energy transfer (FRET) between fluorescently labeled Tar-1 wild-type peptide and its diastereomeric analog was measured. The assay was performed in a model lipid environment of small unilamellar vesicles (SUV) composed of negatively charged PE/PG lipids (7:3 w/w). This phospholipid composition is typical of the E. coli inner membrane. The Tar-1 peptides were labeled with NBD as the donor fluorophore or rhodamine-TAMRA as the acceptor fluorophore, and FRET was measured.

[10] = system: Tar-1 TM domain (ToxR-MalE chimera); settings: different concentrations of exogenous peptide, FIG. 9
Text: The ToxR transcription activator can be used successfully to assess weak protein-protein interactions within the E. coli membrane. A Tar-1 TM domain encoding the DNA cassette was grafted between the ToxR transcription activator and the maltose binding protein in the ToxR-MalE plasmid. The plasmid was then transformed into E. coli FHK12 cells, which contain β-galactosidase, under the control of a ctx promoter. Dimerization of the TM domains, in this system, results in association and activation of the ToxR transcription activator, which then becomes active and is able to bind the ctx promoter. Quantification of the amount of homo-dimerization was done by measuring the activity of the β-galactosidase reporter gene and by normalizing it to the cell content (OD590) (miller units)
The ability of the Tar-1 peptides to disrupt the proper dimerization of the wild-type transmembrane (TM) domain was thus investigated by using the ToxR system. This TM assembly system can assess the dimerization of a specific TM domain grafted between the ToxR transcription activator and the maltose binding protein, MalE. […] The TM-TM interactions were monitored by measuring the activity of β-galactosidase in the presence of different concentrations of exogenous Tar-1 analog peptides.

[11] = system: HIV1 gp41 mediated viral fusion; settings: literature; cited from earlier work

O=C(N[C@H](CO)[C@H](O)c1ccc([N+](=O)[O-])cc1)C(Cl)Cl [chloramphenicol]
cell density (growth) of the bacteria [1]: zero growth

AVGIGALF [8-mer wild-type control peptide, reference compound]
inhibition of HIV-1 mediated cell-cell fusion [2]: completely devoid of inhibitory effect

AVGIGALFLGFLG [reference compound]
inhibition of HIV-1 mediated cell-cell fusion [2]: completely devoid of inhibitory activity

AVGIGALFLGFLGAAGSTMGARSMTLTVQARQL [IFFA]
association with wt-fusion peptide (energy transfer) [3]: associate with the wt-fusion peptide | concentration showing significant inhibitory effect on cell-fusion ([2]; FIG. 2): 10 ng/mL | inhibition compared with the wild-type peptide [2]: identical to that of the wild-type (wt) fusion peptide

AVGIGALFLGFLGAAGSTMGARSMTLTVQARQL [wt-fusion peptide]
binding to T-cells [4]: high affinity binding to T-cells

D-L^669, W^670-DP178 [[D-LW]-DP178]
inhibition compared with the wild-type peptide [2]: more active than the wild-type DP178 | inhibition of HIV-1 mediated cell-cell fusion [2]: inhibited the fusion

D-S^649, Q^650-DP178 [[D-SQ]-DP178]
inhibition of HIV-1 mediated cell-cell fusion [2]: completely inactive

FFGAVIGTIALGVATSAQITAGIALAEAREAKR [fusion peptide of Sendai virus, reference compound]
inhibition of HIV-1 mediated cell-cell fusion [2]: completely devoid of inhibitory activity

ITLIIFGVMAGVIGT [2D-GPA, GPA transmembrane domain analog, L-valines at positions 80 and 84 replaced by their D-enantiomer]
fluorescence energy transfer with wt-GPA [5]: fluorescence energy transfer increased | effect on expression levels of the ToxR GPA construct [6]: no significant differences were detected | inhibition of ToxR GPA homodimer signal ([7]; exogenous peptide 0.5-20 μM): concentration dependent inhibitory effect | IC50 ([7]; extrapolated from the fit to Langmuir equation, read-out: IC50 of the interaction with the integral GPA transmembrane domain): 0.29 µM | localization in FHK12 bacteria [8]: localized in the bacterial membrane

KKITLIIFGVMAGVIGT (also: D-amino acids, which not given here) [SEQ ID NO:12, another diastereomeric GPA peptide]
effect on expression levels of the ToxR GPA construct [6]: did not affect the expression levels

KKITLIIFGVMAGVIGT [all L GPA, reference compound]
IC50 ([7]; previous all L and all D GPA results fitted to this model, read-out: IC50 of the interaction with the GPA transmembrane domain): 0.36 µM

KKKMVLGVFALLQLISGSLKK (KKKMVLGVFALLQLISGSLKK-NH2; also: D-amino acids, which not given here) [Tar-1 diastereomer]
energy transfer [9]: about 30% | inhibition of Tar-1 TM domain dimerization (β-galactosidase activity) [10]: interfered with the proper dimerization

KKKMVLGVFALLQLISGSLKK [Tar-1 all-L, reference compound]
inhibition of Tar-1 TM domain dimerization (β-galactosidase activity) ([10]; listed as Tar-1 all-L peptide): inhibition profile similar to its diastereomeric counterpart

enfuvirtide
inhibition of viral fusion [11]: competent inhibitors of viral fusion
